From publication PMC10895678 (Journal of Medicinal Chemistry, 2024)
In brackets after ≈: the same amount, converted by molar mass. Several values for one entry are separate records, joined by “and”; a condition that tells them apart may be missing. Equal values may be shown once. Read-outs that look alike come from different tables or passages of the source.

Legend:
M. bovis BCG = experiment: microbe, parasite or virus in culture; format: cell-based; details: Mycobacterium tuberculosis variant bovis BCG, read-out: BCG MBC
[1] = Mouse PK, combined (cassette) dosing of BGAz-001–005; format: in vivo, KM mice; design: AUMC(0-t) / VRT(0-t) / λz: unit not given here; details: for AUC(0-t): read-out: AUC(0-t); for MRT last: read-out: MRT(0-t); for MRT inf: read-out: MRT(0-∞); for Vd/F: read-out: Vz/F
Excerpt: Methods for combined single dosing (BGAz001–005) and dosing of single compounds multiple times (BGAz004 and BGAz005) are described in detail in the Supporting Information (PK Data).
Report on PK Results of Combined Dosing with BGAz-001–005
1 Materials and instrument combined dosing
An MS2 Turnover type oscillator was purchased from IKA Work’s Guangzhou (China), and a 5415R ChromatographicanalyseswereconductedusinganAgilent1290InfinityIIhighperformanceliquidchromatography andAgilentTechnologies6470TripleQuadLC/MS.Propranolol(≥90%inpurity,internalstandard,IS)waspurchased fromtheSigmaChemicalCo.(China).Formicacid(HPLCgrade)andmethanol(HPLCgrade)werepurchasedfrom DIKMACo.(China).Allchemicalsandsolventswereanalyticalgrade.WaterwaspurifiedusingaMillipore(AK,USA) laboratoryultra-purewatersystem(0.2μmfilter).
KMmice,weighing25–35g(BeijingVitalRiverLaboratoryAnimalTechnologyCo.,Ltd.,China)wereutilisedforthe studies.The protocols were approved by the Animal Care and Use Committee, GIBH. Animals were maintained on standard animal chow and waterad libitum, in a climate-controlled room (23±1 °C 30–70% relative humidity, a minimumof tenexchangesof roomairperhouranda12hlight/darkcycle)foroneweekpriortoexperiments.
3 Pharmacokinetic studies
Compounds BGAz-001 ，BGAz-002 ，BGAz-003 ，BGAz-004 and BGAz-005 were dissolved mixed in a solution containing DMSO (2%),ethanol (4%), Cremophor EL (4%) and ddH2O (90%); Pharmacokinetic propertiesof KM (male) were determined following IV, PO and IP administration. Animals were randomly distributed into three experimentalgroups(n=4).ThePOgroupwasgivenmixedsolutionwith5mg/kgbygastricgavage.TheIVgroup was dosed with mixed solution 1mg/kg byinjection into the tail vein. The IP group was dosed with mixed solution 1mg/kg by intraperitoneal injection. After single administration, whole blood samples (100 μL) were obtained from the orbital venousplexus atthe followingtime pointsafter dosing:5, 15,30 minand 1,3, 5,8, 24hour (PO and IP groups) and at the following time points after dosing 2, 10, 30min and 1, 3, 5, 8,24 hour (IV group). Wholeblood samples were collected in heparinised tubes. The plasma fraction was immediately separated by centrifugation. The micewerehumanelyeuthanasiabycarbondioxide24hoursafterexperimentwithoutpain.
4 Plasma sample and brain sample analysis
4.1 Standard curve sample preparation
ThecompoundsweredissolvedinDMSO(2mg/mL)anddilutedwithtoseriesconcentration(methanol:H 2O,1:1,10 μL) and blank plasma (50 μL) were added to 1.5 mL tubes and vortexed for 3 min, then acetonitrile-containing internalstandard(150μL)wasaddedandvortexedforafurther5min,andsubsequentlyspuninacentrifugeat13000 […]
4.2 Plasma and preparation
Plasmasampleswerepreparedusingaproteinprecipitationmethod.Solution(10μL,methanolH 2O,1:1)andplasma samples(50μL)wereaddedto1.5mLtubesandvortexfor3min,thenacetonitrile-containinginternalstandard(150 μL)wasaddedandvortexfor5min,andsubsequentlyspuninacentrifugeat13000× gfor40minat4°C.
Aftercentrifugation,supernatant(100μL)wastransferto96wellplatesandanalysedbyLC-MS/MSusinganAgilent 1290InfinityIIHPLCandanAgilentTechnologies6470TripleQuadLC/MS.

[2] = IP 1 mg/kg, cassette, mean of animals
[3] = IV 1 mg/kg, cassette, mean of animals
[4] = PO 5 mg/kg, cassette, mean of animals
[5] = male, KM, mouse, plasma, IP 1 mg/kg, cassette
[6] = male, KM, mouse, plasma, IP 1 mg/kg, cassette, mean of animals
[7] = male, KM, mouse, plasma, IV 1 mg/kg, cassette
[8] = male, KM, mouse, plasma, IV 1 mg/kg, cassette, mean of animals
[9] = male, KM, mouse, plasma, PO 5 mg/kg, cassette
[10] = male, KM, mouse, plasma, PO 5 mg/kg, cassette, mean of animals

Brc1cc(Br)cc(C2CC(CN3CCCC3)N2Cc2ccccc2Br)c1 (stereo not shown) [BGAz-004]
MBC (M. bovis BCG): 12 to 25 µM (≈ 6.52 to 13.6 µg/mL)
AUMC(0-t) [1, 2]: 3591.68 **μg
AUMC(0-∞) [1, 2]: 7580.816 **μg
CLz/F [1, 2]: 1.737 L/kg
C_last [1, 2]: 7.173 µg
R_AUC(t/∞) [1, 2]: 82.475%
VRT(0-t) [1, 2]: 44.576 ^2
VRT(0-∞) [1, 2]: 210.175 ^2
λz [1, 2]: 0.071 1/
AUC(0-∞) ([1]; IP 1 mg/kg, cassette, summary table): 581.359 µg·h
AUMC(0-t) [1, 3]: 5267.479 **μg
AUMC(0-∞) [1, 3]: 9388.553 **μg
CLz/F [1, 3]: 1.659 L/kg
C_last [1, 3]: 6.542 µg
R_AUC(t/∞) [1, 3]: 90.625%
VRT(0-t) [1, 3]: 43.967 ^2
VRT(0-∞) [1, 3]: 134.645 ^2
Vz/F [1, 3]: 17.622 L/kg
λz [1, 3]: 0.091 1/
AUC(0-∞) ([1]; IV 1 mg/kg, cassette, summary table): 789.43 µg·h
BA ([1]; PO 5 mg/kg vs IV 1 mg/kg, cassette): 35.64%
AUMC(0-t) [1, 4]: 7719.114 **μg
AUMC(0-∞) [1, 4]: 23536.035 **μg
CLz/F [1, 4]: 3.927 L/kg
C_last [1, 4]: 32.311 µg
R_AUC(t/∞) [1, 4]: 62.325%
VRT(0-t) [1, 4]: 36.246 ^2
VRT(0-∞) [1, 4]: 301.909 ^2
λz [1, 4]: 0.069 1/
AUC(0-∞) ([1]; PO 5 mg/kg, cassette, summary table): 1406.796 µg·h
AUC(0-inf) ([1]; male, KM, mouse, plasma, ip, 1 mg/kg, IP 1 mg/kg, cassette, mean of animals, read-out: AUC(0-∞)): 581 ng·h/mL
Cmax ([1]; male, KM, mouse, plasma, ip, 1 mg/kg, IP 1 mg/kg, cassette, mean of animals, read-out: Cmax): 61 ng/mL
Tmax ([1]; male, KM, mouse, plasma, ip, 1 mg/kg, IP 1 mg/kg, cassette, mean of animals, read-out: Tmax): 0.271 h
Cmax ([1]; male, KM, mouse, plasma, ip, 1 mg/kg, IP 1 mg/kg, cassette, summary table, read-out: Cmax): 61 ng/mL
half-life ([1]; male, KM, mouse, plasma, ip, 1 mg/kg, IP 1 mg/kg, cassette, summary table, read-out: T1/2 (converted)): 9.82 h
Tmax ([1]; male, KM, mouse, plasma, ip, 1 mg/kg, IP 1 mg/kg, cassette, summary table, read-out: Tmax): 0.271 h
AUC(0-inf) ([1]; male, KM, mouse, plasma, iv, 1 mg/kg, IV 1 mg/kg, cassette, mean of animals, read-out: AUC(0-∞)): 789 ng·h/mL
Cmax ([1]; male, KM, mouse, plasma, iv, 1 mg/kg, IV 1 mg/kg, cassette, mean of animals, read-out: Cmax): 278 ng/mL
Tmax ([1]; male, KM, mouse, plasma, iv, 1 mg/kg, IV 1 mg/kg, cassette, mean of animals, read-out: Tmax): 0.033 h
Cmax ([1]; male, KM, mouse, plasma, iv, 1 mg/kg, IV 1 mg/kg, cassette, summary table, read-out: Cmax): 278 ng/mL
half-life ([1]; male, KM, mouse, plasma, iv, 1 mg/kg, IV 1 mg/kg, cassette, summary table, read-out: T1/2 (converted)): 8.29 h
Tmax ([1]; male, KM, mouse, plasma, iv, 1 mg/kg, IV 1 mg/kg, cassette, summary table, read-out: Tmax): 0.033 h
AUC(0-inf) ([1]; male, KM, mouse, plasma, po, 5 mg/kg, 5 mg/kg PO, cassette dosing, read-out: AUC0-inf): 1410 ng·h/mL
Cmax ([1]; male, KM, mouse, plasma, po, 5 mg/kg, 5 mg/kg PO, cassette dosing, read-out: Cmax (Mouse, P.O.)): 87.6 ng/mL
half-life ([1]; male, KM, mouse, plasma, po, 5 mg/kg, 5 mg/kg PO, cassette dosing, read-out: T1/2 (Mouse, P.O.) (converted)): 11.4 h
Tmax ([1]; male, KM, mouse, plasma, po, 5 mg/kg, 5 mg/kg PO, cassette dosing, read-out: Tmax (Mouse, P.O.)): 0.87 h
AUC(0-inf) ([1]; male, KM, mouse, plasma, po, 5 mg/kg, PO 5 mg/kg, cassette, mean of animals, read-out: AUC(0-∞)): 1410 ng·h/mL
Cmax ([1]; male, KM, mouse, plasma, po, 5 mg/kg, PO 5 mg/kg, cassette, mean of animals, read-out: Cmax): 87.6 ng/mL
Tmax ([1]; male, KM, mouse, plasma, po, 5 mg/kg, PO 5 mg/kg, cassette, mean of animals, read-out: Tmax): 0.875 h
Cmax ([1]; male, KM, mouse, plasma, po, 5 mg/kg, PO 5 mg/kg, cassette, summary table, read-out: Cmax): 87.6 ng/mL
half-life ([1]; male, KM, mouse, plasma, po, 5 mg/kg, PO 5 mg/kg, cassette, summary table, read-out: T1/2 (converted)): 11.4 h
Tmax ([1]; male, KM, mouse, plasma, po, 5 mg/kg, PO 5 mg/kg, cassette, summary table, read-out: Tmax): 0.875 h
concentration at 0.083 h [1, 5]: 55.3 ng/mL and 100 nM
concentration at 0.25 h [1, 5]: 110 nM and 60.1 ng/mL
concentration at 0.5 h [1, 5]: 90 nM and 50.3 ng/mL
concentration at 1 h [1, 5]: 70 nM and 39.4 ng/mL
concentration at 3 h [1, 5]: 60 nM and 31 ng/mL
concentration at 5 h [1, 5]: 50 nM and 24.4 ng/mL
concentration at 8 h [1, 5]: 40 nM and 21.8 ng/mL
concentration at 24 h [1, 5]: 10 nM and 7.15 ng/mL
AUC(0-t) [1, 6]: 478 ng·h/mL
MRT last [1, 6]: 7.49 h
MRT inf [1, 6]: 12.9 h
Vd/F [1, 6]: 24.4 L/kg
concentration at 0.033 h ([1]; male, KM, mouse, plasma, IV 1 mg/kg, cassette, 0.033 h): 278 ng/mL and 520 nM
concentration at 0.167 h ([1]; male, KM, mouse, plasma, IV 1 mg/kg, cassette, 0.167 h): 270 nM and 148 ng/mL
concentration at 0.5 h [1, 7]: 160 nM and 84.6 ng/mL
concentration at 1 h [1, 7]: 170 nM and 89.6 ng/mL
concentration at 3 h [1, 7]: 80 nM and 40.5 ng/mL
concentration at 5 h [1, 7]: 50 nM and 28.3 ng/mL
concentration at 8 h [1, 7]: 40 nM and 21.6 ng/mL
concentration at 24 h [1, 7]: 30 nM and 15.1 ng/mL
C0 [1, 8]: 327 ng/mL
AUC(0-t) [1, 8]: 688 ng·h/mL
MRT last [1, 8]: 6.4 h
MRT inf [1, 8]: 9.25 h
concentration at 0.083 h [1, 9]: 17.3 ng/mL and 30 nM
concentration at 0.25 h [1, 9]: 80 nM and 42.6 ng/mL
concentration at 0.5 h [1, 9]: 120 nM and 65.1 ng/mL
concentration at 1 h [1, 9]: 160 nM and 84.4 ng/mL
concentration at 3 h [1, 9]: 130 nM and 68.4 ng/mL
concentration at 5 h [1, 9]: 120 nM and 63.3 ng/mL
concentration at 8 h [1, 9]: 110 nM and 60.5 ng/mL
concentration at 24 h [1, 9]: 40 nM and 22.2 ng/mL
AUC(0-t) [1, 10]: 945 ng·h/mL
MRT last [1, 10]: 6.82 h
MRT inf [1, 10]: 15.7 h
Vd/F [1, 10]: 58.1 L/kg
